Assay results as given in US9453062B2, “Glucose dependent insulinotropic polypeptide analogs, pharmaceutical compositions and use thereof” (Beijing Hanmi Pharmaceutical Co., Ltd., priority 2011, dated 2016).
Like-named read-outs stand apart in the source and are kept apart here. One block for each compound: values may come before it. Where a SMILES comes first, the peptide text is derived from it. Where no end group is shown, it is not given here. [ ]: non-standard residue; d: D form. Nle = CCCC[C@H](N)C(=O)O; Aib = CC(C)(N)C(=O)O

Experiments:
hGLP-1R = molecular target: T1, hGLP-1R (Homo sapiens, UniProt P43220); test: hGLP-1R-mediated cAMP induction assay in CHO cell line; assay type: cell-based;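 also: CHO cells expressing human GLP-1R, treated 30 min at 37 °C, intracellular cAMP measured by competitive fluorescent immunoassay and converted via a cAMP standard curve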
T1 construct: expressed in transfected cells; host or cells: CHO
Excerpt: (§1) The cAMP in the sample or standard competes with horseradish peroxidase (HRP)-labeled cAMP conjugate for binding sites on the anti-cAMP antibodies. In the absence of cAMP, most of the HRP-cAMP conjugate is bound to the antibody. Increasing concentrations of cAMP competitively decrease the amount of bound conjugate, thus decreasing measured HRP activity.
(§2) Assay kit: CatchPoint™ Cyclic-AMP Fluorescent Assay Kit (Molecular Devices, Product # R8088)
Cell lines: CHO hGLP1R, CHO hGIPR
(§3) Cell seeding: CHO hGLP1R or CHO hGIPR cells: 10,000 cells/well/100 uL at 37° C. 5% CO2 overnight.
(§4) Gently aspirate off media and wash the cells with KRBG Buffer, 100 uL/well.
(§5) Incubate the plate for 10 min at room temperature. Then add the KRBG buffer with 3× final concentration of the tested samples (5-foled series diluted from 5,000 nM), 50 uL/well. Incubate the plate at 37° C. 5% CO2 for 30 min.
(§6) Add 50 uL of Lysis buffer to each well and put the plate on a shaker for 10 min.
(§7) Place 40 uL of samples and analyze in appropriate wells. And test the cAMP concentration in each sample by following the manufacture's instruction.
(§8) Detect the fluorescence signal at Ex: 490 nm and Em: 530 nm. Transfer the FI signal to cAMP concentration by the cAMP standard curve. The Dose-response curve and EC50 were obtained by logistic fitting of Origin 8.

hGIPR = molecular target: T2, hGIPR (Homo sapiens, UniProt P48546); test: hGIPR-mediated cAMP induction assay in CHO cell line; assay type: cell-based; conditions: for GIP Receptor Relative Potency: against native GIP
T2 construct: expressed in transfected cells; host or cells: CHO
T2 sequence (P48546 22-466): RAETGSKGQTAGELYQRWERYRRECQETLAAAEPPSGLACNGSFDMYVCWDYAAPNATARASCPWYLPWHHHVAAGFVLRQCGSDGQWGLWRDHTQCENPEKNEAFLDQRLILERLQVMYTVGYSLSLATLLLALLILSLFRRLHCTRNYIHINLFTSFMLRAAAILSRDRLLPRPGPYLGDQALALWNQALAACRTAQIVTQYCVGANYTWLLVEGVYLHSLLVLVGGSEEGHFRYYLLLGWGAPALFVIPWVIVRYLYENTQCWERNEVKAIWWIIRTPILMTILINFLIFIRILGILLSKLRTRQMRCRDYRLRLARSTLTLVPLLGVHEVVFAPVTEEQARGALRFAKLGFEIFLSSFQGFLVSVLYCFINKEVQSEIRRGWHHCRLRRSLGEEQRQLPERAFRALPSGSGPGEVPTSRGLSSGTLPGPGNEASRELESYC
Excerpt: as §1, §2
Cell lines: CHO hGLP1R, CHO hGIPR
as §3, §4, §5, §6, §7, §8

T1 sequence (P43220 24-463): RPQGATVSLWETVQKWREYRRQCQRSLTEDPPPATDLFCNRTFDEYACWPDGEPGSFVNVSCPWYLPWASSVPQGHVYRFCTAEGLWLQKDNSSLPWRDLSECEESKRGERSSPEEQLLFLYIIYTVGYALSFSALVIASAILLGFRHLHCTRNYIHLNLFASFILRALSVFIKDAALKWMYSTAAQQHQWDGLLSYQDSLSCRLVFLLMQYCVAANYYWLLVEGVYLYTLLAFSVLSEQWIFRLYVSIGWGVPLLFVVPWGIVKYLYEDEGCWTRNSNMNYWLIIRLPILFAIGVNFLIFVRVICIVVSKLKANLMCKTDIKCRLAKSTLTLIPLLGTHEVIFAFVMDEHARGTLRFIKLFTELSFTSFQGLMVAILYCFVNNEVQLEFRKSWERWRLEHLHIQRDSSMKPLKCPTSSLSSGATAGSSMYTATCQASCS

Compound: Tyr-Aib-Glu-Gly-Thr-Phe-Thr-Ser-Asp-Tyr-Ser-Ile-Tyr-Met-Glu-Lys-Ile-His-Gln-Gln-Asp-Phe-Val-Asn-Trp-Leu-Leu-Ala-Gln(NH2) (Y[Aib]EGTFTSDYSIYMEKIHQQDFVNWLLAQ-NH2) [Analog 003]
GLP-1R activation (GLP-1 activity) against native GLP-1 (hGLP-1R): ~0.2%

EC50 (hGIPR; Table 3, CHO hGIPR cells): 0.5 nM | GIP Receptor Relative Potency (hGIPR; Table 3): 34
Compound: CC[C@H](C)[C@H](NC(=O)[C@H](Cc1ccccc1)NC(=O)[C@H](CCC(=O)O)NC(=O)[C@H](CCC(=O)O)NC(=O)[C@@H](NC(=O)[C@H](C)NC(=O)[C@H](CCC(=O)O)NC(=O)[C@H](CCCCN)NC(=O)[C@H](CCC(=O)O)NC(=O)[C@H](CCSC)NC(=O)[C@H](Cc1ccc(O)cc1)NC(=O)[C@@H](NC(=O)[C@H](CO)NC(=O)[C@H](Cc1ccc(O)cc1)NC(=O)[C@H](CC(=O)O)NC(=O)[C@H](CO)NC(=O)[C@@H](NC(=O)[C@H](Cc1ccccc1)NC(=O)[C@@H](NC(=O)CNC(=O)[C@H](CCC(=O)O)NC(=O)C(C)(C)NC(=O)[C@@H](N)Cc1ccc(O)cc1)[C@@H](C)O)[C@@H](C)O)[C@@H](C)CC)C(C)C)C(=O)N[C@@H](C)C(=O)N[C@@H](Cc1c[nH]c2ccccc12)C(=O)N[C@@H](CC(C)C)C(=O)N[C@H](C(=O)N[C@@H](CCCCN)C(=O)NCC(N)=O)C(C)C [Compound 053-1] (H-Y[Aib]EGTFTSDYSIYMEKEAVEEFIAWLVKG-NH2; N-terminus assumed)

Compound: CCCC[C@H](NC(=O)[C@H](Cc1ccc(O)cc1)NC(=O)[C@@H](NC(=O)[C@H](CO)NC(=O)[C@H](Cc1ccc(O)cc1)NC(=O)[C@H](CC(=O)O)NC(=O)[C@H](CO)NC(=O)[C@@H](NC(=O)[C@H](Cc1ccccc1)NC(=O)[C@@H](NC(=O)CNC(=O)[C@H](CCC(=O)O)NC(=O)C(C)(C)NC(=O)[C@@H](N)Cc1ccc(O)cc1)[C@@H](C)O)[C@@H](C)O)[C@@H](C)CC)C(=O)N[C@@H](CCC(=O)O)C(=O)N[C@@H](CCCCN)C(=O)N[C@H](C(=O)N[C@@H](Cc1c[nH]cn1)C(=O)N[C@@H](CCC(N)=O)C(=O)N[C@@H](CCC(N)=O)C(=O)N[C@@H](CC(=O)O)C(=O)N[C@@H](Cc1ccccc1)C(=O)N[C@H](C(=O)N[C@@H](CC(N)=O)C(=O)N[C@@H](Cc1c[nH]c2ccccc12)C(=O)N[C@@H](CC(C)C)C(=O)N[C@H](C(=O)N[C@@H](CCCNC(=N)N)C(=O)N[C@@H](CCC(N)=O)C(N)=O)C(C)C)C(C)C)[C@@H](C)CC [Compound 021] (H-Y[Aib]EGTFTSDYSIY[Nle]EKIHQQDFVNWLVRQ-NH2; N-terminus assumed)
GIP Receptor Relative Potency (hGIPR; Table 3): 21.7

Compound: Tyr-Aib-Glu-Gly-Thr-Phe-Thr-Ser-Asp-Tyr-Ser-Ile-Tyr-Nle-Glu-Lys-Glu-Ala-Gln-Gln-Asp-Phe-Val-Asn-Trp-Leu-Leu-Ala-Gln(NH2) (Y[Aib]EGTFTSDYSIY[Nle]EKEAQQDFVNWLLAQ-NH2) [Analog 020]
GLP-1R activation (GLP-1 activity) against native GLP-1 (hGLP-1R): less than 1%

EC50 (hGIPR; Table 3, CHO hGIPR cells): 0.57 nM | GIP Receptor Relative Potency (hGIPR; Table 3): 36.8
Compound: CC[C@H](C)[C@H](NC(=O)[C@H](Cc1ccccc1)NC(=O)[C@H](CCC(=O)O)NC(=O)[C@H](CCCCN)NC(=O)[C@@H](NC(=O)[C@H](C)NC(=O)[C@H](CCC(=O)O)NC(=O)[C@H](CCCCN)NC(=O)[C@H](CCC(=O)O)NC(=O)[C@H](CCSC)NC(=O)[C@H](Cc1ccc(O)cc1)NC(=O)[C@@H](NC(=O)[C@H](CO)NC(=O)[C@H](Cc1ccc(O)cc1)NC(=O)[C@H](CC(=O)O)NC(=O)[C@H](CO)NC(=O)[C@@H](NC(=O)[C@H](Cc1ccccc1)NC(=O)[C@@H](NC(=O)CNC(=O)[C@H](CCC(=O)O)NC(=O)C(C)(C)NC(=O)[C@@H](N)Cc1ccc(O)cc1)[C@@H](C)O)[C@@H](C)O)[C@@H](C)CC)C(C)C)C(=O)N[C@@H](C)C(=O)N[C@@H](Cc1c[nH]c2ccccc12)C(=O)N[C@@H](CC(C)C)C(=O)N[C@H](C(=O)N[C@@H](CCCCN)C(=O)NCC(N)=O)C(C)C [Compound 057] (H-Y[Aib]EGTFTSDYSIYMEKEAVKEFIAWLVKG-NH2; N-terminus assumed)

Compound: Tyr-Ala-Glu-Gly-Thr-Phe-Ile-Ser-Asp-Tyr-Ser-Ile-Ala-Met-Asp-Lys-Ile-His-Gln-Gln-Asp-Phe-Val-Asn-Trp-Leu-Leu-Ala-Gln(NH2) (YAEGTFISDYSIAMDKIHQQDFVNWLLAQ-NH2; listed as Homo sapiens) [GIP (1-29), initial scaffold, reference compound]
GIPR activation in vitro, in words (hGIPR; cAMP induction, liraglutide up to 1 μM): equivalent GIPR activation in vitro to that of the full-length GIP (1-42)

Compound: CC[C@H](C)[C@H](NC(=O)[C@H](CO)NC(=O)[C@H](Cc1ccc(O)cc1)NC(=O)[C@H](CC(=O)O)NC(=O)[C@H](CO)NC(=O)[C@@H](NC(=O)[C@H](Cc1ccccc1)NC(=O)[C@@H](NC(=O)CNC(=O)[C@H](CCC(=O)O)NC(=O)C(C)(C)NC(=O)[C@@H](N)Cc1ccc(O)cc1)[C@@H](C)O)[C@@H](C)O)C(=O)N[C@@H](Cc1ccc(O)cc1)C(=O)N[C@@H](CCSC)C(=O)N[C@@H](CCC(=O)O)C(=O)N[C@@H](CCCCN)C(=O)N[C@H](C(=O)N[C@@H](Cc1c[nH]cn1)C(=O)N[C@@H](CCC(N)=O)C(=O)N[C@@H](CCC(N)=O)C(=O)N[C@@H](CC(=O)O)C(=O)N[C@@H](Cc1ccccc1)C(=O)N[C@H](C(=O)N[C@@H](CC(N)=O)C(=O)N[C@@H](Cc1c[nH]c2ccccc12)C(=O)N[C@@H](CC(C)C)C(=O)N[C@@H](CC(C)C)C(=O)N[C@@H](C)C(=O)N[C@@H](CCC(N)=O)C(N)=O)C(C)C)[C@@H](C)CC [Compound 003] (H-Y[Aib]EGTFTSDYSIYMEKIHQQDFVNWLLAQ-NH2; N-terminus assumed)
GIP Receptor Relative Potency (hGIPR; Table 3): 77.7

Compound: CCCC[C@H](NC(=O)[C@H](Cc1ccc(O)cc1)NC(=O)[C@@H](NC(=O)[C@H](CO)NC(=O)[C@H](Cc1ccc(O)cc1)NC(=O)[C@H](CC(=O)O)NC(=O)[C@H](CO)NC(=O)[C@@H](NC(=O)[C@H](Cc1ccccc1)NC(=O)[C@@H](NC(=O)CNC(=O)[C@H](CCC(=O)O)NC(=O)C(C)(C)NC(=O)[C@@H](N)Cc1ccc(O)cc1)[C@@H](C)O)[C@@H](C)O)[C@@H](C)CC)C(=O)N[C@@H](CCC(=O)O)C(=O)N[C@@H](CCCCN)C(=O)N[C@@H](CCC(=O)O)C(=O)N[C@@H](C)C(=O)N[C@@H](CCC(N)=O)C(=O)N[C@@H](CCC(N)=O)C(=O)N[C@@H](CC(=O)O)C(=O)N[C@@H](Cc1ccccc1)C(=O)N[C@H](C(=O)N[C@@H](CC(N)=O)C(=O)N[C@@H](Cc1c[nH]c2ccccc12)C(=O)N[C@@H](CC(C)C)C(=O)N[C@@H](CC(C)C)C(=O)N[C@@H](C)C(=O)N[C@@H](CCC(N)=O)C(N)=O)C(C)C [Compound 020] (H-Y[Aib]EGTFTSDYSIY[Nle]EKEAQQDFVNWLLAQ-NH2; N-terminus assumed)
EC50 (hGIPR): 0.27 nM | GIP Receptor Relative Potency (hGIPR; Table 3): 51.8
